Results as given in patent US10975083B2, “Blood-brain barrier-penetrant dopamine-β-hydroxylase inhibitors” (BIAL—PORTELA & Cᵃ, S.A., priority 2016, dated 2021).

Biological target: T1, DβH (Homo sapiens, UniProt P09172)
T1 construct: reaction mixture (total volume 500 μl) contained: cellular homogenate (75 μg total protein); host or cells: SK-N-SH cell homogenate
T1 sequence (P09172 1-617): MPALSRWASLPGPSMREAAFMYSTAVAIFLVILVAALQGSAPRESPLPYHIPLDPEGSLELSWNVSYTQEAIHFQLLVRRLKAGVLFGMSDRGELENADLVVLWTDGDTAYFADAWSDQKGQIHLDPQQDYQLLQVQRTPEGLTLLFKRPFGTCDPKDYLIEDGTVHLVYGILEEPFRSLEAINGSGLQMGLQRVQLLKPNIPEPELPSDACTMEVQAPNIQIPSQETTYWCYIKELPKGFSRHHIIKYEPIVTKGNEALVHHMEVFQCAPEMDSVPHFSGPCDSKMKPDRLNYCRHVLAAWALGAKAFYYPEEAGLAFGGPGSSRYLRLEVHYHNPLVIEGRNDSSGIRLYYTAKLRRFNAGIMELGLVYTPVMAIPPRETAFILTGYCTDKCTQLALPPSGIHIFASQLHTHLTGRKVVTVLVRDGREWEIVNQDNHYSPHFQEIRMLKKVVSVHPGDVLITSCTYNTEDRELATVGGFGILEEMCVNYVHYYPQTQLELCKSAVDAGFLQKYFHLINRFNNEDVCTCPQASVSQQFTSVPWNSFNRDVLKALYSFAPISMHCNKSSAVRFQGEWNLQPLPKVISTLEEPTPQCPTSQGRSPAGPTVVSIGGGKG
Test: DβH inhibition cell assay (SK-N-SH cellular homogenates, tyramine to octopamine)
Type: biochemical
Conditions: SK-N-SH cell homogenate; for remaining activity at 0.1 µM: inhibitor 0.1 μM, read-out: DβH activity in % of Ctrl (0.1 μM); for remaining activity at 1 µM: inhibitor 1 μM, read-out: DβH activity in % of Ctrl (1 μM); for remaining activity at 10 µM: inhibitor 10 μM, read-out: DβH activity in % of Ctrl (10 μM)
Description: The ability of a compound to inhibit DβH activity may be assessed using the following cell assay. […] . […] Fetal bovine serum was removed from cells for 4 h prior to collection.
For the preparation of cellular homogenates, media was removed and cell monolayers were washed with 50 mM Tris-HCl pH 7.4. Cells were subsequently scrapped off the flasks and were resuspended in 50 mM Tris pH 7.4. Cell suspensions were homogenized with SilentCrusher M (Heidolph) for a short stroke and resultant homogenates were aliquoted and stored frozen at −80° C.
Total protein was quantified in cellular homogenates with BioRad Protein Assay (BioRad) using a standard curve of BSA (50-250 μg/mL).
DβH activity was measured by a modification of the method of Nagatsu and Udenfriend (Nagatsu, T. and S. Udenfriend: “Photometric assay of dopamine-hydroxylase activity in human blood.” Clin. Chem. 18(9): 980-3, 1972) which is based on the enzymatic hydroxylation of tyramine into octopamine. The octopamine formed is subsequently oxidized to p-hydroxybenzaldehyde and measured by spectrophotometry. In brief, reaction mixture (total volume 500 μl) contained: cellular homogenate (75 μg total protein) sodium acetate pH 5.0 (200 mM), NEM (30 mM), CuSO4 (5 μM), catalase aqueous solution (0.5 mg/mL), pargyline-HCl (1 mM), sodium fumarate (10 mM), ascorbic acid (10 mM), inhibitor or vehicle and tyramine (25 mM). After a 10 min pre-incubation period at 37° C., the reaction was initiated by the addition of tyramine. Reaction was carried out for 45 min at 37° C. before termination with 50 μl PCA (2 M).
Samples were centrifuged for 3 min at 16100 g and supernatants were subjected to solid phase extraction. Solid phase extraction was performed using either SPE cartridges ISOLUTE SCX-3 (100 mg, 1 mL) or SPE 2 mL fixed 96 well plates ISOLUTE SCX-3 (100 mg) previously equilibrated with MilliQ water. Columns/plates were centrifuged at 150 g for 2 min. Eluate was discarded and matrix was washed with 1 mL of MilliQ water after which octopamine was eluted with 2×0.25 mL ammonium hydroxide (4 M). The oxidation of octopamine to p-hydroxybenzaldehyde was carried out for 6 min with 100 μl sodium periodate (2%) and was stopped with 100 μl sodium metabisulfite (10%). Absorbance was measured at 330 nm on a Spectramax microplate reader (Molecular Devices, Sunnyvale, Calif.). All enzymatic reactions were performed in duplicate. Results are reported in the table below as activity in % of control at the inhibitor concentration tested.

Row | remaining activity at 0.1 µM [%] | remaining activity at 1 µM [%] | remaining activity at 10 µM [%] | SMILES
1 | 89 | 53.8 | 3.9 | NC(=S)N1CCC(c2ccc(F)cc2)C1 (stereo not drawn) [Example 3, 3-(4-Fluorophenyl)pyrrolidine-1-carbothioamide]
2 |  |  | 18.6 | NC(=S)N1CCCC(c2ccccc2)C1 (stereo not drawn) [Example 4, 3-phenylpiperidine-1-carbothioamide]
3 | 83.2 |  | 0.8 | NC(=S)N1CCC(c2ccc(F)cc2F)C1 (stereo not drawn) [Example 5, 3-(2,4-difluorophenyl)pyrrolidine-1-carbothioamide]
4 | 97.6 | 50.3 | 3.3 | NC(=S)N1CC[C@@H](c2ccccc2)C1 [Example 6, (S)-3-phenylpyrrolidine-1-carbothioamide]
5 | 86.4 | 31.4 | 1.5 | NC(=S)N1CC[C@H](c2ccccc2)C1 [Example 11, (R)-3-phenylpyrrolidine-1-carbothioamide]
6 |  |  | 7.2 | Cc1ccccc1C1CCN(C(N)=S)C1 (stereo not drawn) [Example 13, 3-o-tolylpyrrolidine-1-carbothioamide]
7 |  |  | 13.1 | Cc1cccc(C2CCN(C(N)=S)C2)c1 (stereo not drawn) [Example 14, 3-m-tolylpyrrolidine-1-carbothioamide]
8 |  | 55.5 |  | NC(=S)N1CCC(c2ccoc2)C1 (stereo not drawn) [Example 16, 3-(furan-3-yl)pyrrolidine-1-carbothioamide]
9 | 57 | 6.4 |  | NC(=S)N1CCC(c2cc(F)ccc2F)C1 (stereo not drawn) [Example 18, 3-(2,5-difluorophenyl)pyrrolidine-1-carbothioamide]
10 |  | 44.8 |  | NC(=S)N1CCC(c2ccc(F)c(F)c2)C1 (stereo not drawn) [Example 20, 3-(3,4-difluorophenyl)pyrrolidine-1-carbothioamide]
11 |  | 27.4 |  | NC(=S)N1CCC(c2ccc(F)c(F)c2F)C1 (stereo not drawn) [Example 22, 3-(2,3,4-trifluorophenyl)pyrrolidine-1-carbothioamide]
12 |  | 70.9 | 13.7 | S=C1NCC2CC(c3ccccc3)CN12 (stereo not drawn) [Example 44, 6-Phenyltetrahydro-1H-pyrrolo[1,2-c]imidazole-3(2H)-thione]

The remaining lines, values behind:

Row | SMILES | remaining activity at 0.1 µM [%] | remaining activity at 1 µM [%] | remaining activity at 10 µM [%]
13 | NC(=S)N1CCC(c2cc(F)c(F)cc2F)C1 (stereo not drawn) [Example 19, 3-(2,4,5-trifluorophenyl)pyrrolidine-1-carbothioamide] |  | 33.4 | 
14 | NC(=S)N1CC[C@@H](c2c(F)cc(F)cc2F)C1 [Example 21, (S)-3-(2,4,6-trifluorophenyl)pyrrolidine-1-carbothioamide] |  | 17.5 | 
15 | NC(=S)N1C[C@@H]2C[C@]2(c2cccs2)C1 [Example 28, (1R,5R)-1-(thiophen-2-yl)-3-azabicyclo[3.1.0]hexane-3-carbothioamide] | 0.2 | 3.3 | 
16 | NC(=S)N1CCC(c2c(F)c(F)c(F)c(F)c2F)C1 (stereo not drawn) [Example 29, 3-(perfluorophenyl)pyrrolidine-1-carbothioamide] | 26.9 |  | 
17 | CNC(=S)N1CCC(c2c(F)c(F)cc(F)c2F)C1 (stereo not drawn) [Example 33, N-methyl-3-(2,3,5,6-tetrafluorophenyl)pyrrolidine-1-carbothioamide] | 11.8 | 1 | 
18 | NC(=S)N1C[C@H]2C[C@@]2(c2cc(F)cc(F)c2)C1 [Example 35, (1R,5S)-1-(3,5-difluorophenyl)-3-azabicyclo[3.1.0]hexane-3-carbothioamide] | 95 | 34.3 | 0
19 | NC(=S)N1C[C@@H]2C[C@]2(c2cc(F)cc(F)c2)C1 [Example 36, (1S,5R)-1-(3,5-difluorophenyl)-3-azabicyclo[3.1.0]hexane-3-carbothioamide] | 4 | 0 | 
20 | CCCNC(=S)N1C[C@@H]2C[C@]2(c2cc(F)cc(F)c2)C1 [Example 39, (1S,5R)-1-(3,5-Difluorophenyl)-N-propyl-3-azabicyclo[3.1.0]hexane-3-carbothioamide] | 40.4 | 0.3 | 
21 | Fc1ccc(F)c(C23CC2CN(C(=S)NCCS)C3)c1 (stereo not drawn) [Example 40, 1-(2,5-difluorophenyl)-N-(2-mercaptoethyl)-3-azabicyclo[3.1.0]hexane-3-carbothioamide] | 87.9 |  | 
22 | CNC(=S)N1C[C@@]2(c3cc(F)cc(F)c3)C[C@H]2C1=O [Example 41, (1S,5R)-1-(3,5-difluorophenyl)-N-methyl-4-oxo-3-azabicyclo[3.1.0]hexane-3-carbothioamide] | 29.8 | 0 | 
23 | NNC(=S)N1CC2CC2(c2cc(F)cc(F)c2)C1 (stereo not drawn) [Example 45, 1-(3,5-Difluorophenyl)-3-azabicyclo[3.1.0]hexane-3-carbothiohydrazide] |  | 29.1 | 
24 | CN(C)C(=S)N1CC2CC2(c2cc(F)cc(F)c2)C1 (stereo not drawn) [Example 46, 1-(3,5-Difluorophenyl)-N,N-dimethyl-3-azabicyclo[3.1.0]hexane-3-carbothioamide] |  | 31.6 | 
25 | N#CCNC(=S)N1CC2CC2(c2cc(F)ccc2F)C1 (stereo not drawn) [Example 47, N-(cyanomethyl)-1-(2,5-difluorophenyl)-3-azabicyclo[3.1.0]hexane-3-carbothioamide] |  | 45.3 | 
26 | CNC(=S)N1C=CC(c2cc(F)cc(F)c2)C1 (stereo not drawn) [Example 48, 3-(3,5-Difluorophenyl)-N-methyl-2,3-dihydro-1H-pyrrole-1-carbothioamide] |  | 43 | 
27 | Fc1cc(F)cc([C@]23C[C@H]2c2n[nH]c(=S)n2C3)c1 [Example 60, (5aS,6aR)-5a-(3,5-difluorophenyl)-5,5a,6,6a-tetrahydrocyclopropa[3,4]pyrrolo[2,1-c][1,2,4]triazole-3(2H)-thione] |  | 60.2 | 
28 | Fc1cc(F)c(F)c([C@@H]2Cc3c[nH]c(=S)n3C2)c1F [Example 61, (S)-6-(2,3,5,6-tetrafluorophenyl)-6,7-dihydro-2H-pyrrolo[1,2-c]imidazole-3(5H)-thione] | 52.2 | 8.4 | 
29 | Fc1cc(F)c(F)c([C@H]2Cc3c[nH]c(=S)n3C2)c1F [Example 62, (R)-6-(2,3,5,6-tetrafluorophenyl)-6,7-dihydro-2H-pyrrolo[1,2-c]imidazole-3(5H)-thione] | 43.1 | 9.8 | 
30 | Fc1cc(F)c(F)c([C@]23C[C@H]2c2c[nH]c(=S)n2C3)c1 [Example 63, (5aS,6aR)-5a-(2,3,5-trifluorophenyl)-5,5a,6,6a-tetrahydrocyclopropa[3,4]pyrrolo[1,2-c]imidazole-3 (2H)-thione] |  | 13.9 | 
31 | Fc1cccc(F)c1[C@]12C[C@H]1c1c[nH]c(=S)n1C2 [Example 64, (5aS,6aR)-5a-(2,6-difluorophenyl)-5,5a,6,6a-tetrahydrocyclopropa[3,4]pyrrolo[1,2-c]imidazole-3(2H)-thione] | 39.9 | 7.2 | 
32 | Fc1cccc(F)c1[C@@]12C[C@@H]1c1c[nH]c(=S)n1C2 [Example 65, (5aR,6aS)-5a-(2,6-difluorophenyl)-5,5a,6,6a-tetrahydrocyclopropa[3,4]pyrrolo[1,2-c]imidazole-3(2H)-thione] |  | 17.9 | 
